Measurements published in patent US9201014B2, “Development of photostable near-IR cyanine dyes for in vivo imaging” (National University of Singapore, priority 2010, dated 2015).

Assays:
[1] = Primary screening of photostability of the CyNA library (time-course fluorescence, 8 h); assay type: physicochemical; parameters: F/Fo, fluorescent intensity at 8 hours vs 0 hours: unit: %; conditions: 10 μM in HEPES 100 mM pH 7.4, 2% DMSO
Protocol: As a primary evaluation of photo stability, the decrease in fluorescence intensity of the 80 CyNA compounds was measured (see Table 2). The average decrease in fluorescence intensity after 8 hours of irradiation by a xenon lamp was approximately 18%. A subset of the most photostable compounds (i.e., F/Fo reported in Table 2 was greater than or equal to 95) was examined under stronger irradiation in various buffers.
10-μM CyNA solutions in 100 mM HEPES buffer (pH 7.4) containing 2% DMSO were placed in a 96-well black plate, and fluorescence intensity measurements were recorded every 10 minutes for a total period of 8 hours (excitation-emission: 790-820 nm). A subset of fourteen compounds selected according to their F8h/Fo quotients, quantum yields and maximum relative fluorescence units (RFU) values was further evaluated in a secondary screening

[2] = Absorbance and fluorescence maximum wavelengths and quantum yields of the CyNA library; assay type: physicochemical; conditions: for λabs, absorbance maximum wavelength / λem, fluorescence maximum wavelength: CyNA library; for φ, quantum yield: in DMSO, Cardiogreen as standard
Protocol: Since the k values of the different CyNA compounds indicated some dependency on the chemical structure of the amine, the CyNA scaffold was derivatized with a broad range of primary amines (FIGS. 4A-4C). The fluorescence properties of the 80-member CyNA library were measured. The absorption maximum wavelengths ranged from 802 nm to 806 nm, emission maximum wavelengths ranged from 817 nm to 823 nm, and the average quantum yield was approximately 0.10 (Table 2).
All the chemicals (building block amines plus others) and solvents were purchased from Sigma Aldrich, Alfa Aesar, Fluka, MERCK or Acros, and used without further purification. ^1H-NMR and ^13C-NMR spectra were recorded on Bruker Avance 300 NMR and 500 NMR spectrometers, and chemical shifts are expressed in parts per million (ppm). High-resolution mass spectrometry (HRMS) data was recorded on a Micromass VG 7035. Photobleaching experiments were performed using a UVP Blak-Ray® B-100AP high intensity UV lamp (100 W, 365 nm) Spectroscopic and quantum yield data were measured on a SpectraMax M2 spectrophotometer (Molecular Devices), and the data analysis was performed using GraphPrism 5.0. Photobleaching measurements were performed using an Eclipse Ti-U Nikon microscope (filter cube: 750/800) attached to Ti:sappire oscillator that operated in continuous wave mode, and the data was processed using the software NIS-Elements 3.10. In vivo images were taken in an IVIS Spectrum imaging system (Caliper Life Sciences).

SMILES	max RFU, maximum relative fluorescence units [1]	λabs, absorbance maximum wavelength [2] [nm]	λem, fluorescence maximum wavelength [2] [nm]	φ, quantum yield [2]	F/Fo, fluorescent intensity at 8 hours vs 0 hours [1]
CCCN1/C(=C/C=C2\CCCC(/C=C/C3=[N+](CCC)c4ccccc4C3(C)C)=C2N(CCCCc2ccccc2)C(C)=O)C(C)(C)c2ccccc21 [CyNA-131]	259.8	804	819	0.13	–
CCCN1/C(=C/C=C2\CCCC(/C=C/C3=[N+](CCC)c4ccccc4C3(C)C)=C2N(CCC(c2ccccc2)c2ccccc2)C(C)=O)C(C)(C)c2ccccc21 [CyNA-100]	333.8	804	819	0.08	63
CCCN1/C(=C/C=C2\CCCC(/C=C/C3=[N+](CCC)c4ccccc4C3(C)C)=C2N(Cc2c(OC)cc(OC)cc2OC)C(C)=O)C(C)(C)c2ccccc21 [CyNA-336]	827.7	804	820	0.11	85
CCCN1/C(=C/C=C2\CCCC(/C=C/C3=[N+](CCC)c4ccccc4C3(C)C)=C2N(CCc2ccc([N+](=O)[O-])cc2)C(C)=O)C(C)(C)c2ccccc21 [CyNA-359]	527.6	805	821	0.11	85
CCCN1/C(=C/C=C2\CCCC(/C=C/C3=[N+](CCC)c4ccccc4C3(C)C)=C2N(Cc2ccc(Cl)cc2)C(C)=O)C(C)(C)c2ccccc21 [CyNA-221]	382.6	803	820	0.07	86
CCCN1/C(=C/C=C2\CCCC(/C=C/C3=[N+](CCC)c4ccccc4C3(C)C)=C2N(Cc2ccc(Cl)cc2Cl)C(C)=O)C(C)(C)c2ccccc21 [CyNA-531]	187.5	804	820	0.08	100
CCCN1/C(=C/C=C2\CCCC(/C=C/C3=[N+](CCC)c4ccccc4C3(C)C)=C2N(CCc2ccc(C)cc2)C(C)=O)C(C)(C)c2ccccc21.[I-] [CyNA-478]	121.6	805	821	0.09	64
CCCN1/C(=C/C=C2\CCCC(/C=C/C3=[N+](CCC)c4ccccc4C3(C)C)=C2N(CCc2cccc(OC)c2)C(C)=O)C(C)(C)c2ccccc21 [CyNA-102]	998.9	805	822	0.14	63
CCCN1/C(=C/C=C2\CCCC(/C=C/C3=[N+](CCC)c4ccccc4C3(C)C)=C2N(CCc2ccc(O)cc2)C(C)=O)C(C)(C)c2ccccc21 [CyNA-346]	434.2	804	822	0.07	69
CCCN1/C(=C/C=C2\CCCC(/C=C/C3=[N+](CCC)c4ccccc4C3(C)C)=C2N(Cc2cc(OC)c(OC)c(OC)c2)C(C)=O)C(C)(C)c2ccccc21 [CyNA-356]	892.3	804	820	0.12	83
CCCN1/C(=C/C=C2\CCCC(/C=C/C3=[N+](CCC)c4ccccc4C3(C)C)=C2N(Cc2ccccc2OCC)C(C)=O)C(C)(C)c2ccccc21 [CyNA-103]	1106.6	804	821	0.14	92
CCCN1/C(=C/C=C2\CCCC(/C=C/C3=[N+](CCC)c4ccccc4C3(C)C)=C2N(Cc2ccc(F)cc2F)C(C)=O)C(C)(C)c2ccccc21 [CyNA-399]	775.5	804	819	0.10	95
CCCN1/C(=C/C=C2\CCCC(/C=C/C3=[N+](CCC)c4ccccc4C3(C)C)=C2N(CCc2cccc(F)c2)C(C)=O)C(C)(C)c2ccccc21 [CyNA-405]	138.5	806	820	0.06	83
CCCN1/C(=C/C=C2\CCCC(/C=C/C3=[N+](CCC)c4ccccc4C3(C)C)=C2N(CC2CCCCC2)C(C)=O)C(C)(C)c2ccccc21 [CyNA-382]	294.6	804	820	0.08	85
CCCCCCCCCCCN(C(C)=O)C1=C(/C=C/C2=[N+](CCC)c3ccccc3C2(C)C)CCC/C1=C\C=C1\N(CCC)c2ccccc2C1(C)C [CyNA-567]	279.2	805	820	0.14	100
CCCN1/C(=C/C=C2\CCCC(/C=C/C3=[N+](CCC)c4ccccc4C3(C)C)=C2N(CCN2CCOCC2)C(C)=O)C(C)(C)c2ccccc21 [CyNA-282]	820.1	805	819	0.09	90
CCCN1/C(=C/C=C2\CCCC(/C=C/C3=[N+](CCC)c4ccccc4C3(C)C)=C2N(Cc2cccc(OC)c2OC)C(C)=O)C(C)(C)c2ccccc21 [CyNA-124]	1334.2	803	820	0.15	100
CCCN1/C(=C/C=C2\CCCC(/C=C/C3=[N+](CCC)c4ccccc4C3(C)C)=C2N(CCCOC(C)C)C(C)=O)C(C)(C)c2ccccc21 [CyNA-274]	1209.5	805	820	0.12	99
CCCCC(CC)COCCCN(C(C)=O)C1=C(/C=C/C2=[N+](CCC)c3ccccc3C2(C)C)CCC/C1=C\C=C1\N(CCC)c2ccccc2C1(C)C (centres unmarked) [CyNA-193]	58.7	806	822	0.12	–
CCCN1/C(=C/C=C2\CCCC(/C=C/C3=[N+](CCC)c4ccccc4C3(C)C)=C2N(CC(C)C)C(C)=O)C(C)(C)c2ccccc21 [CyNA-487]	45.3	806	823	0.04	30
CCCN1/C(=C/C=C2\CCCC(/C=C/C3=[N+](CCC)c4ccccc4C3(C)C)=C2N(CCc2ccc(CC)cc2)C(C)=O)C(C)(C)c2ccccc21 [CyNA-201]	52.6	803	820	0.08	33
CCCN1/C(=C/C=C2\CCCC(/C=C/C3=[N+](CCC)c4ccccc4C3(C)C)=C2N(Cc2ccc(OC)cc2OC)C(C)=O)C(C)(C)c2ccccc21 [CyNA-181]	996.8	805	821	0.14	66
CCCN1/C(=C/C=C2\CCCC(/C=C/C3=[N+](CCC)c4ccccc4C3(C)C)=C2N(CCc2ccc(OC)cc2)C(C)=O)C(C)(C)c2ccccc21 [CyNA-395]	234.3	804	820	0.07	95
